Laboratory results taken from the NIST ThermoML archive (doi:10.1021/je801009z).
Values joined by “and” are separate entries in the source; they are usually repeats but may differ in a detail not shown here. Equal entries are not always repeated. Numbers after ± are expanded uncertainties.

Settings: Vibrating tube method

SMILES | mass density (288 K, 19600 kPa, Liquid) [kg/m3] | mass density (298 K, 19600 kPa, Liquid) [kg/m3] | mass density (308 K, 5000 kPa, Liquid) [kg/m3] | mass density (308 K, 10100 kPa, Liquid) [kg/m3] | mass density (308 K, 15400 kPa, Liquid) [kg/m3] | mass density (308 K, 19600 kPa, Liquid) | mass density (308 K, 23700 kPa, Liquid) [kg/m3] | mass density (318 K, 19600 kPa, Liquid) [kg/m3] | mass density (328 K, 19600 kPa, Liquid) [kg/m3] | mass density (308 K, 20000 kPa, Fluid (supercritical or subcritical phases)) [kg/m3] | mass density (313 K, 10000 kPa, Fluid (supercritical or subcritical phases)) [kg/m3] | mass density (313 K, 15000 kPa, Fluid (supercritical or subcritical phases)) [kg/m3] | mass density (313 K, 20000 kPa, Fluid (supercritical or subcritical phases)) | mass density (313 K, 25000 kPa, Fluid (supercritical or subcritical phases)) [kg/m3] | mass density (313 K, 36000 kPa, Fluid (supercritical or subcritical phases)) [kg/m3] | mass density (318 K, 20000 kPa, Fluid (supercritical or subcritical phases)) [kg/m3] | mass density (323 K, 20000 kPa, Fluid (supercritical or subcritical phases)) [kg/m3] | mass density (328 K, 20000 kPa, Fluid (supercritical or subcritical phases)) [kg/m3] | mass density (333 K, 20000 kPa, Fluid (supercritical or subcritical phases)) [kg/m3]
FCC(F)(F)F [1,1,1,2-tetrafluoroethane] | 1290 ± 120 | 1270 ± 60 | 1150 ± 100 | 1180 ± 60 | 1210 ± 10 | 1240 ± 10 kg/m3 and 1240 ± 60 kg/m3 | 1260 ± 100 | 1210 ± 60 | 1180 ± 120 | – | – | – | – | – | – | – | – | – | –
O=C=O [carbon dioxide] | – | – | – | – | – | – | – | – | – | 870 ± 120 | 570 | 780 ± 20 | 850 ± 80 kg/m3 and 830 ± 60 kg/m3 | 890 ± 180 | 900 ± 200 | 820 ± 20 | 790 ± 20 | 760 ± 80 | 730 ± 140
